# Test results: patent US9409876B2, “Bradykinin receptor antagonists and pharmaceutical compositions containing them” (DOMPE' FARMACEUTICI S.P.A., priority 2013, dated 2016)
# Target: T1, BKB1 receptors (Homo sapiens, UniProt P46663)
# T1 construct: Human (IMR-90) lung fibroblast cells expressing native BKB1 receptors; endogenous in cells; host or cells: IMR-90 human lung fibroblasts, treated with human IL-1 to up-regulate BKB1
# T1 sequence (P46663 1-353): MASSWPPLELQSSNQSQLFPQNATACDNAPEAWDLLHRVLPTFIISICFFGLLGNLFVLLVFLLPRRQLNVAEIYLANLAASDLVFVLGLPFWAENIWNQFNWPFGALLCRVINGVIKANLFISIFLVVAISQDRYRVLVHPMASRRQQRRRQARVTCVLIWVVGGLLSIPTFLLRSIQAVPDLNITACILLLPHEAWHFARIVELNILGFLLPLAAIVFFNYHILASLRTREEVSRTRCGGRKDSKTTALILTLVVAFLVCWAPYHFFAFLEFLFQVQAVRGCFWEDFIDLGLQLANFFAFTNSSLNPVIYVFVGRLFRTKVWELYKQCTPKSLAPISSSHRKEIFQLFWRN
# Assay: Calcium Mobilization Assay (FLIPR), IMR-90 cells, BKB1
# Type: cell-based
# Details: IL-1 induced IMR-90 cells, agonist desArg10-kallidin (DAKD)
# Description: Calcium Mobilization Assay (FLIPR)—Human (IMR-90) lung fibroblast cells expressing native BKB1 receptors were harvested by trypsinization and seeded into black wall/clear bottom 96-well plates (Costar 3904; Corning Life Sciences, Acton, Mass.) at approximately 13,000 cells/well. After 1 day incubation, cells were treated with human IL-1 (0.35 ng/ml) in 10% FBS/MEM for 2 h to up-regulate BKB1 receptors. Induced cells were loaded with fluorescent calcium indicator by incubation with 2.3 µM Fluo-4/acetoxymethyl ester (Invitrogen) at 37° C. for 1.5 h in the presence of an anion transport inhibitor (2.5 mM probenecid in 1% FBS/MEM). Extracellular dye was removed by washing with assay buffer (2.5 mM probenecid, 0.1% BSA in 20 mM HEPES/HBSS without bicarbonate or phenol red, pH 7.5) and cell plates were kept in the dark until used. Test compounds were assayed at eight concentrations in triplicate.
row,Structure (SMILES),IC50 [nM]
1,"Cc1ccc(C(C(=O)NCC2CCCO2)N(CC2CCCC2)C(=O)Cc2ccccc2)cc1 (stereo not drawn) [47 (mix), N-(cyclopentylmethyl)-N-{1-(4-methylphenyl)-2-oxo-2-[(tetrahydrofuran-2-yl)methylamino]ethyl}2-phenylacetamide]",9800
2,COc1ccccc1CN(C(=O)CC(C)C)C(C(=O)NCC1CCCO1)c1ccc(C(F)(F)F)cc1 (stereo not drawn) [54 (mix)],528
3,"COc1ccccc1CN(C(=O)c1coc(C)n1)[C@@H](C(=O)NC[C@H]1CCCO1)c1ccc(C)cc1 [Compound 2 (R,R)]",63
4,"COc1ccccc1CN(C(=O)CN1C(=O)c2ccccc2C1=O)C(C(=O)NCC1CCCO1)c1ccc(C)cc1 (stereo not drawn) [10 (mix), 2-(1,3-dioxoisoindolin-2-yl)-N-(2-methoxybenzyl)-N-{1-(4-methylphenyl)-2-oxo-2-[(tetrahydrofuran-2-ylmethyl)amino]-ethyl}acetamide]",300
5,"Cc1ccc(C(C(=O)NCC2CCCO2)N(Cc2cccc(C)c2)C(=O)C2CC2C)cc1 (stereo not drawn) [38 (mix), 2-methyl-N-(3-methylbenzyl)-N-{1-(4-methylphenyl)-2-oxo-2-[(tetrahydrofuran-2-ylmethyl)amino]ethyl}cyclopropanecarboxamide]",12700
6,COc1ccccc1CN(C(=O)CC(C)C)C(C(=O)NCC1CCCO1)c1ccc(C)cc1 (stereo not drawn) [8 (mix)],418
